Assay results as given in publication PMC7374938 (Journal of medicinal chemistry, 2017).
Where a name gives a salt, the structure may show the parent alone.

Legend:
[1] = target: T1, human 5-HT2C-INI receptor (Homo sapiens, UniProt P28335); assay: Calcium flux assay; type: cell-based; details: for 5-HT2C EC50: Table 1, FLIPR calcium flux, calculated from averaged pEC50; for Emax: read-out: 5-HT2C Emax, Table 1, normalized to % 5-HT, mean ± SEM (n = 3), NA = no activity up to 10 μM
T1 sequence (P28335 33-458): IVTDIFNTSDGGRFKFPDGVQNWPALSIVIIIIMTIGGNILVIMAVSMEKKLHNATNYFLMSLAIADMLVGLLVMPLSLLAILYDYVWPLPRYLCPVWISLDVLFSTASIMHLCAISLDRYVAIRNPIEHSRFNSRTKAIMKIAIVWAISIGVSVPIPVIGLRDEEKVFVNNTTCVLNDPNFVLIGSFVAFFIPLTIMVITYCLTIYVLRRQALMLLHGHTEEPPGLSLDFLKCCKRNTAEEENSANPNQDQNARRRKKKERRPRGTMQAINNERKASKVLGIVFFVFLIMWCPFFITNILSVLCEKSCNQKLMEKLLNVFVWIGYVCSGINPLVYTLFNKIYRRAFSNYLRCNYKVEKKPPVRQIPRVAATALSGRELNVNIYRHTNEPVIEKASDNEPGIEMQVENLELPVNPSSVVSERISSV

5-HT2B [2] = target: T2, 5-HT2B (Homo sapiens, UniProt P41595); assay: Calcium flux assay; type: cell-based
T2 sequence (P41595 whole entry): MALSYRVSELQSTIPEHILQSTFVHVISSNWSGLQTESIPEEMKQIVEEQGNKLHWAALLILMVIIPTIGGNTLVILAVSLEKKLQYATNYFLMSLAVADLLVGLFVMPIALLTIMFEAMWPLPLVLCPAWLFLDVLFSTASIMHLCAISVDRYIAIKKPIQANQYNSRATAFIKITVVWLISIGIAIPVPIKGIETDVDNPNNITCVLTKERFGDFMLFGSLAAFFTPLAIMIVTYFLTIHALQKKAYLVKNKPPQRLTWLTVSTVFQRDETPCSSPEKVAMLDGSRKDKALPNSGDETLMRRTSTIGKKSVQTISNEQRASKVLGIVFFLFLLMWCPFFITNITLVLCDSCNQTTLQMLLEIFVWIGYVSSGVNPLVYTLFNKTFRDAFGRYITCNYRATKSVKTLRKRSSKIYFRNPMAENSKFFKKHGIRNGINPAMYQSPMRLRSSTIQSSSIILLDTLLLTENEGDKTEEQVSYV

5-HT2C [3] = target: T3, 5-HT2C (Homo sapiens, UniProt P28335); assay: Binding affinity
T3 sequence (P28335 33-458): T1 sequence (P28335 33-458)

[4] = target: T1, human 5-HT2C-INI receptor; assay: Tango β-arrestin-2 recruitment assay; type: cell-based; details: for β-arrestin recruitment activity: 5-HT2C
C57BL/6J mice [5] = assay: Phencyclidine; type: in vivo, mouse; details: PCP 5 mg/kg, 60 min
CYP2D6 = CYP2D6 (Homo sapiens, UniProt P10635); assay: in vitro; details: human liver microsomes, probe dextromethorphan
Sequence of CYP2D6 (P10635 whole entry): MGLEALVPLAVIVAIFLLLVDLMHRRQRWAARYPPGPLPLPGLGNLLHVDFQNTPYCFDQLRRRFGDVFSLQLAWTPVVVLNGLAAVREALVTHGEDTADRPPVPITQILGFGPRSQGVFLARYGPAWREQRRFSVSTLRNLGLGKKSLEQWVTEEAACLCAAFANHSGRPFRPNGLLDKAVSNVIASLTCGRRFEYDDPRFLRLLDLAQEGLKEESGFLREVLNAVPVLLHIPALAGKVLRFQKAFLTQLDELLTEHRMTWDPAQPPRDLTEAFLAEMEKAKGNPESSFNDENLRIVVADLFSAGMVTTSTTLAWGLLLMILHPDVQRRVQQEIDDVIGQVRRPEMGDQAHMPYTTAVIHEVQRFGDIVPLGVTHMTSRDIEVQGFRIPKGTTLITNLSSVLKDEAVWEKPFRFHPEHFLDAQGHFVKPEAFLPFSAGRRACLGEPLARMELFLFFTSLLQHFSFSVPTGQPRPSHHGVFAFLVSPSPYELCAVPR

CYP3A4 = CYP3A4 (Homo sapiens, UniProt P08684); assay: in vitro; details: human liver microsomes, probe midazolam
Sequence of CYP3A4 (P08684 whole entry): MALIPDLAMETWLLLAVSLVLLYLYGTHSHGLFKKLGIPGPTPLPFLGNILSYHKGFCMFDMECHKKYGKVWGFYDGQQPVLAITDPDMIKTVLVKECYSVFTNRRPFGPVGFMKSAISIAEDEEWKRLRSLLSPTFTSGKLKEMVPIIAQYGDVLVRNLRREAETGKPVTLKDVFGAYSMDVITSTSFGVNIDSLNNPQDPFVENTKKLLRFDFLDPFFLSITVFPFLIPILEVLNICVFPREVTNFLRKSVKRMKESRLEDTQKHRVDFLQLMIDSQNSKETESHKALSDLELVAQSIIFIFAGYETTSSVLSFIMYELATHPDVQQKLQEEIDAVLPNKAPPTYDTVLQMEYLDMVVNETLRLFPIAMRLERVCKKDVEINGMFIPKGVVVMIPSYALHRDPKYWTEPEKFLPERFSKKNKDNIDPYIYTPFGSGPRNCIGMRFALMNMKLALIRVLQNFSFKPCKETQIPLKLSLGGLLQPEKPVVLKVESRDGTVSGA

C57BL/6J mice [6] = assay: Amphetamine; type: in vivo, mouse; details: AMPH 3 mg/kg, 90 min
[7] = system: serotonin receptors, dopamine receptors, monoamine transporters, and other selected CNS targets; assay: Off-target binding panel; details: panel of CNS targets
C57BL/6J mice [8] = assay: Baseline; type: in vivo, mouse; details: 0–15 min, male C57BL/6J mice
5-HT2A [9] = target: T4, 5-HT2A (Homo sapiens, UniProt P28223); assay: Calcium flux assay; type: cell-based; details: read-out: 5-HT2A Emax
T4 sequence (P28223 whole entry): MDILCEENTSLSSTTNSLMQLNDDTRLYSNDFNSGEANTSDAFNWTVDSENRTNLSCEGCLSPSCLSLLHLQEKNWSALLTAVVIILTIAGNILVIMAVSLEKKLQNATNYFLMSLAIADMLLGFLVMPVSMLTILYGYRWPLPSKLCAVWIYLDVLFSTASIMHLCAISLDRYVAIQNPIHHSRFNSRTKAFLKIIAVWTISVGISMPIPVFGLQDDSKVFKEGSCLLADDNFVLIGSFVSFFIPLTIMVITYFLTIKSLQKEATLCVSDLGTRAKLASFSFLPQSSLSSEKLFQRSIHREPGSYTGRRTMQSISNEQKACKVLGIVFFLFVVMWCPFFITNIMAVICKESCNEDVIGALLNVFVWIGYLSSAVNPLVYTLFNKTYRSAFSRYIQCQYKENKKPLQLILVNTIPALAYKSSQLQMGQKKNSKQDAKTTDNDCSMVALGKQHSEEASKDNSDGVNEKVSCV

[10] = cited from earlier work
5-HT2A [11] = target: T4, 5-HT2A; details: cited from earlier work
5-HT2B [12] = target: T2, 5-HT2B; details: cited from earlier work
5-HT2C [13] = target: T3, 5-HT2C; details: cited from earlier work

COc1ccc(F)cc1C1CC1CNCC1CC1.Cl (racemic) [(±)-17, 1-Cyclopropyl-N-[[2-(5-fluoro-2-methoxyphenyl)cyclopropyl]methyl]methanamine Hydrochloride]
EC50 [1]: > 300 nM | 5-HT2C EC50 [1]: lack of activity

COc1ccc(F)cc1C1CC1CNCc1ccccc1O.Cl (racemic) [(±)-22, 2-[[[[2-(5-Fluoro-2-methoxyphenyl)cyclopropyl]methyl]amino]methyl]phenol Hydrochloride]
selectivity for 5-HT2C over 5-HT2B (5-HT2B [2]): full selectivity

COc1ccc(F)cc1C1CC1CNCc1ccccc1C#N (racemic) [(±)-24, 2-[[[[2-(5-Fluoro-2-methoxyphenyl)cyclopropyl]methyl]amino]methyl]benzonitrile Hydrochloride]
Emax [1]: < 35%

COc1ccc(F)cc1C1CC1CNCc1ccccc1C(N)=O (racemic) [(±)-25, 2-[[[[2-(5-Fluoro-2-methoxyphenyl)cyclopropyl]methyl]amino]methyl]benzamide Hydrochloride]
Emax [1]: < 35%

COc1ccccc1CN(C)CC1CC1c1cc(F)ccc1OC.Cl (racemic) [(±)-28, 1-[2-(5-Fluoro-2-methoxyphenyl)cyclopropyl]-N-(2-methoxybenzyl)-N-methylmethanamine Hydrochloride]
reduction of 5-HT2C potency compared to the parent compound (+)-19 ([1]; racemate vs (+)-19): 15 fold

COc1ccc(F)cc1C1CC1CNCc1cccc2cc[nH]c12.Cl (racemic) [(±)-38, 1-[2-(5-Fluoro-2-methoxyphenyl)cyclopropyl)-N-[(1H-indol-7-yl)methyl]methanamine Hydrochloride]
5-HT2C EC50 [1]: entirely inactive

CNC[C@H]1C[C@@H]1c1cc(F)ccc1OC.Cl [(+)-15a, (+)-1-[(1S,2S)-2-(5-Fluoro-2-methoxyphenyl)cyclopropyl]-N-methylmethanamine Hydrochloride]
Ki (5-HT2C [3]): 81 nM | β-arrestin recruitment activity [4]: no β-arrestin recruitment activity

COc1ccccc1CNC[C@H]1C[C@@H]1c1cc(F)ccc1OC.Cl [(+)-19, (+)-1-[(1S,2S)-2-(5-Fluoro-2-methoxyphenyl)cyclopropyl]-N-(2-methoxybenzyl)methanamine Hydrochloride]
effect on PCP-induced hyperactivity (C57BL/6J mice [5]; 10 mg/kg IP): increased locomotion | effect on PCP-induced hyperactivity (C57BL/6J mice [5]; 20 mg/kg IP): had no effect on PCP-induced hyperlocomotion | inhibition at 10 µM (CYP2D6): > 50% | inhibition at 10 µM (CYP3A4): > 50% | effect on amphetamine-induced hyperactivity (C57BL/6J mice [6]; 10 mg/kg IP): no significant effect | effect on amphetamine-induced hyperactivity (C57BL/6J mice [6]; 20 mg/kg IP): decreased the hyperlocomotion | off-target affinity [7]: None of the other screened targets were found to display any significant off-target affinity | baseline locomotion (C57BL/6J mice [8]; 10 mg/kg IP): had no effect | baseline locomotion (C57BL/6J mice [8]; 20 mg/kg IP): had no effect

COc1ccc(F)cc1[C@H]1C[C@@H]1CNCc1cccs1.Cl [(+)-32, (+)-1-[(1S,2S)-2-(5-Fluoro-2-methoxyphenyl)cyclopropyl]-N-(thiophen-2-ylmethyl)methanamine Hydrochloride]
β-arrestin recruitment activity [4]: no β-arrestin recruitment activity | selectivity for 5-HT2C over 5-HT2B (5-HT2B [2]): full selectivity

COc1ccc(F)cc1[C@@H]1C[C@H]1CNCc1ccccc1Cl [(−)-27, (–)-N-(2-Chlorobenzyl)-1-[(1R,2R)-2-(5-fluoro-2-methoxyphenyl)cyclopropyl]methanamine Hydrochloride]
Emax (5-HT2A [9]): 84 ± 3.9%

COc1cc(CC(C)N)c(OC)cc1I (stereo not shown) [DOI]
effect on the locomotor effects of PCP [10]: potentiate the locomotor effects of PCP

CNc1nc(Cc2ccccc2)nc2c1CCNC[C@@H]2C [PF-4479745]
agonism at 5-HT2A (5-HT2A [11]): no measurable agonism | agonism at 5-HT2B (5-HT2B [12]): no measurable agonism

CNc1nc(Cc2ccccc2)cc2c1CCNCC2 [PF-04781340]
selectivity over 5-HT2B (5-HT2B [12]): about 160 fold | 5-HT2C Emax (5-HT2C [13]): 99% | EC50 (5-HT2C [13]; read-out: 5-HT2C EC50): 9 nM

C[C@H]1CNCCc2ccc(Cl)cc21 [lorcaserin, reference compound]
effect on PCP-induced hyperactivity (C57BL/6J mice [5]; 3 mg/kg IP): no overall reduction in activity that was statistically significant | Emax ([4]; read-out: β-arrestin-2 Emax): 97 ± 2.1% | effect on amphetamine-induced hyperactivity (C57BL/6J mice [6]; 3 mg/kg IP): reduced amphetamine-induced hyperactivity | baseline locomotion (C57BL/6J mice [8]; 3 mg/kg IP): decreased baseline locomotion
